Results taken from article PMC11096368, “Transcriptomic signature, bioactivity and safety of a non-hepatotoxic analgesic generating AM404 in the midbrain PAG region” (Scientific Reports, 2024).
“Also recorded” adds a separate entry of the source.

Legend:
hERG current = biological target: T1, hERG current (Homo sapiens, UniProt Q12809); assay: Cardiotoxicity assay (hERG); format: cell-based; details: human embryonic kidney cells
T1 construct: expressed in transfected cells; host or cells: human embryonic kidney cells
T1 sequence (Q12809 whole entry): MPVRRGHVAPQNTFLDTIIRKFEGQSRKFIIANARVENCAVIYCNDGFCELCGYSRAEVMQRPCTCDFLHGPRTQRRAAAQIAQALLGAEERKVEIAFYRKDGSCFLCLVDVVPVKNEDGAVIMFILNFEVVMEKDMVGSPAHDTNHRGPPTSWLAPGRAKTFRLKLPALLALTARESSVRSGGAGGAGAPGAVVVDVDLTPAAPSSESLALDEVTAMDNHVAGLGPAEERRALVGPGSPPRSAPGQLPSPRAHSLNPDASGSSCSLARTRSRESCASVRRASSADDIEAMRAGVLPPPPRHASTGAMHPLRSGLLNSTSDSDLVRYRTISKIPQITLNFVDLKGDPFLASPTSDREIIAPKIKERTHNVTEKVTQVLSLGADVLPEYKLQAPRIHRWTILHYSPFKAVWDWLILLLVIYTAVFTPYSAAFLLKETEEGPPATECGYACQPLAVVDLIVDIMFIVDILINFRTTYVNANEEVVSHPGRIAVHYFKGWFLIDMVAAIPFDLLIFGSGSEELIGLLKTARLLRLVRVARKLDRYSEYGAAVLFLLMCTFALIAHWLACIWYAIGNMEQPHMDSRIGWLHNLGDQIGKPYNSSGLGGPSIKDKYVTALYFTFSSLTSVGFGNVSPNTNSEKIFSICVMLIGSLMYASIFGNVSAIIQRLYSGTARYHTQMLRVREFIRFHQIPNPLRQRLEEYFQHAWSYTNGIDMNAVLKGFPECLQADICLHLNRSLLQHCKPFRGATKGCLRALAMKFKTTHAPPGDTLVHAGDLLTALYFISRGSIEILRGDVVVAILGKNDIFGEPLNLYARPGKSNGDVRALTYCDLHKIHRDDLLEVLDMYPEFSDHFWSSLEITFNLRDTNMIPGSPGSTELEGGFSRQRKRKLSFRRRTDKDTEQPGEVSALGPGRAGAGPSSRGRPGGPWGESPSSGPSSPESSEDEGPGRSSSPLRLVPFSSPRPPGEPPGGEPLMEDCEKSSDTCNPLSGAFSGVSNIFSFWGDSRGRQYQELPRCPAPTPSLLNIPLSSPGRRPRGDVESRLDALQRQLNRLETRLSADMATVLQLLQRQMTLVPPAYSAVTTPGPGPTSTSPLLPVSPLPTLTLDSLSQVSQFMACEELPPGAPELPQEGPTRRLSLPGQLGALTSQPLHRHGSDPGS
Description: The effects of SRP-001 on hERG current amplitude at physiologic temperatures were evaluated over a nominal concentration range of 0.1 μM to […]. A vehicle group (10% DMSO) was included in the study for comparison, and dofetilide (10 nM) was used as a reference substance. The vehicle and positive controls indicated appropriate sensitivity of the test systems. […] Next, the potential acute effects of oral SRP-001 on cardiovascular function in conscious telemetered beagle dogs was done using a Latin Square design; 4 male naïve beagle dogs each received vehicle (10% DMSO: 10% labrasol: 80% PEG400) and three doses (30, 90, and 150 mg/kg) of SRP-001 nanosuspension by oral gavage. […] A single dose was administered on the day of dosing, and a washout period of seven days was allowed between doses. One-min means of hemodynamic parameters, as well as ECG parameters and body temperature, were measured for a period of at least 24 h. One-min tracings of the ECGs were obtained at 15 min prior to dosing and at 30 min, 1, 2, 4, 8, 12, and 24 h post-dose. Qualitative evaluation of the ECGs was done by a board-certified veterinary cardiologist.

[1] = tested on: Salmonella typhimurium strains TA98, TA100, TA1535, TA1537, and E. coli WP2 uvrA; assay: Ames bacterial reverse mutation assay; format: cell-based, Escherichia coli
Description: SRP-001 was tested to evaluate its mutagenic potential by measuring its ability to induce reverse mutations at selected loci of several strains of Salmonella typhimurium (S. typhimurium) and at the tryptophan locus of Escherichia coli (E. coli) strain WP2 uvrA in the presence and absence of an exogenous metabolic activation system (Bioreliance, Rockville, MD USA). Dimethyl sulfoxide (10% DMSO) was used as the vehicle. The dose levels tested in the preliminary toxicity assay were 6.67, 10.0, 33.3, 66.7, 100, 333, 667, 1000, 3333, and 5000 µg per plate. No precipitate was observed. […] The dose levels tested in the mutagenicity assay were 100, 333, 667, 1000, 3333, and 5000 µg per plate.

healthy volunteers = assay: Phase 1 trial safety and tolerability; format: in vivo, human; details: for Clinically significant abnormality (N): Adverse events / Clinically significant abnormality (N): Clinical chemistry / Clinically significant abnormality (N): ECG / Clinically significant abnormality (N): Physical exam / Clinically significant abnormality (N): Urinalysis / Clinically significant abnormality (N): Vital signs / Clinically significant abnormality (N): pharHematology: n = 6
Description: A randomized, double-blind, placebo-controlled Phase 1 trial (ClinicalTrials.gov identifier: NCT05484414) (02/08/2022) was conducted to assess the safety, tolerability, food effect, pharmacokinetics (PK), and pharmacodynamics (PD) of single and multiple ascending doses of SRP-001 (Quotient Sciences, Miami FL USA; Fig. 3h - k and Methods). The trial was conducted in accordance with the International Council for Harmonisation of Technical Requirements for Pharmaceuticals for Human Use (ICH), Guideline for GCP: Consolidated Guidance (E6), attained Institutional Review Board approval, and all applicable regulatory requirements for Phase 1, First in Human clinical trials. Safety measurements and plasma samples to determine PK parameters were collected throughout the study for all subjects and reviewed by the Safety Review Committee. PK stopping criteria were established to assure that systemic exposure to SRP-001 was less than or equal to the systemic exposure achieved at the NOAEL doses in the 28-day repeat-dose toxicology studies in the rat and dog. The trial’s Safety Advisory Committee has approved the publication of the Phase 1 results.
SRP-001 was administered as an oral nanosuspension to 56 healthy volunteers across five Single Ascending Dose (SAD) and two Multiple Ascending Dose (MAD) cohorts, with 42 subjects receiving SRP-001 and 14 receiving a placebo.
A two-part randomized, double-blind, placebo-controlled Phase 1 trial was conducted to assess the safety, tolerability, PK and PD of SRP-001 ascending doses (Quotient Sciences, Miami, FL, USA). The study was conducted in accordance with the International Council for Harmonisation of Technical Requirements for Pharmaceuticals for Human Use (ICH), Guideline for GCP: Consolidated Guidance (E6), and applicable regulatory requirements(s) including clinical research guidelines established by the Basic Principles defined in the U.S. 21 CFR Parts 50, 56, and 312 and the principles enunciated in the Declaration of Helsinki (revised version Fortaleza 2013). The clinical protocol and informed consent form were reviewed and approved by an Institutional Review Board (IRB; Advarra IRB, 6100 Merriweather Drive, Suite 600, Columbia, MD 21,044; Quotient Protocol No. SRP-101 and Quotient Sciences Study No. QSC205130; Quotient Sciences Miami, 3898 NW 7th Street, Miami, FL 33,126.). The study comprises a SAD (Part 1) assessment that includes a food effect assessment that contributes data to inform a subsequent MAD (Part 2) dose-ranging study. Safety measurements were collected throughout the study for all subjects. Blood samples were collected to determine the PK parameters of SRP-001 (ClinicalTrials.gov identifier: NCT05484414) (02/08/2022).
NHVs also underwent continuous ECG Holter monitoring from at least 1 h prior to dosing until 24 h post-dose, and resulting measurements were monitored consistently. All ECGs were collected electronically using a Mortara H12 + Holter monitor. Specific procedures for ECG Holter recording and extractions were provided to the Investigator by the Central ECG Laboratory, Banook Group. On Day 1, continuous Holter recording commenced at least 1 h prior to dosing until 24 h post-dose. Subjects were required to rest in the supine position with no external stimuli (e.g. music or television) for 15 min prior to the nominal time point where an ECG extraction was scheduled. This extraction was taken by the third-party Holter provider at the planned time, and therefore, no other procedures were performed within the resting period. […] Subjects were allowed to move more freely outside of the primary ECG rest periods. Comfort breaks for hygienic purposes were allowed each morning well in advance of the required supine/ECG extraction points. […]

[2] = Cohort 1 (Regimen A), 300 mg SRP-001, Fasted
[3] = Cohort 2 (Regimen B), 600 mg SRP-001, Fasted
[4] = Cohort 3 (Regimen C), 900 mg SRP-001, Fasted
[5] = Cohort 4 (Regimen E), 2000 mg SRP-001, Fasted

CCN(CC)C(=O)c1ccccc1S(=O)(=O)NCC(=O)Nc1ccc(O)cc1 [SRP-001, N,N-diethyl-2-[[2-(4-hydroxyanilino)-2-oxo-ethyl]sulfamoyl]benzamide]
Signal in in vitro hERG assay (hERG current): absent relevant signal
Dose with toxicity (reduction in the revertant count) ([1]; preliminary toxicity assay, tester strains TA1537 and WP2 uvrA, absence of S9): 5000 µg per plate
Mutagenic response (reverse mutations) ([1]; up to 5000 µg per plate, presence or absence of S9 activation): negative; also recorded: No positive mutagenic responses; also recorded: No positive mutagenic responses were observed with any of the tester strains in either the presence or absence of S9 activation
Clinically significant abnormality (N): Adverse events (healthy volunteers; [2]): 0
Clinically significant abnormality (N): Clinical chemistry (healthy volunteers; [2]): 0
Clinically significant abnormality (N): ECG (healthy volunteers; [2]): 0
Clinically significant abnormality (N): Physical exam (healthy volunteers; [2]): 0
Clinically significant abnormality (N): Urinalysis (healthy volunteers; [2]): 0
Clinically significant abnormality (N): Vital signs (healthy volunteers; [2]): 0
Clinically significant abnormality (N): pharHematology (healthy volunteers; [2]): 0
Clinically significant abnormality (N): Adverse events (healthy volunteers; [3]): 0
Clinically significant abnormality (N): Clinical chemistry (healthy volunteers; [3]): 0
Clinically significant abnormality (N): ECG (healthy volunteers; [3]): 0
Clinically significant abnormality (N): Physical exam (healthy volunteers; [3]): 0
Clinically significant abnormality (N): Urinalysis (healthy volunteers; [3]): 0
Clinically significant abnormality (N): Vital signs (healthy volunteers; [3]): 0
Clinically significant abnormality (N): pharHematology (healthy volunteers; [3]): 0
Clinically significant abnormality (N): Adverse events (healthy volunteers; [4]): 0
Clinically significant abnormality (N): Clinical chemistry (healthy volunteers; [4]): 0
Clinically significant abnormality (N): ECG (healthy volunteers; [4]): 0
Clinically significant abnormality (N): Physical exam (healthy volunteers; [4]): 0
Clinically significant abnormality (N): Urinalysis (healthy volunteers; [4]): 0
Clinically significant abnormality (N): Vital signs (healthy volunteers; [4]): 0
Clinically significant abnormality (N): pharHematology (healthy volunteers; [4]): 0
Clinically significant abnormality (N): Adverse events (healthy volunteers; [5]): 0
Clinically significant abnormality (N): Clinical chemistry (healthy volunteers; [5]): 0
Clinically significant abnormality (N): ECG (healthy volunteers; [5]): 0
Clinically significant abnormality (N): Physical exam (healthy volunteers; [5]): 0
Clinically significant abnormality (N): Urinalysis (healthy volunteers; [5]): 0
Clinically significant abnormality (N): Vital signs (healthy volunteers; [5]): 0
Clinically significant abnormality (N): pharHematology (healthy volunteers; [5]): 0
Emesis (healthy volunteers; Phase 1 MAD cohort): no emesis
Safety assessments (vital signs, physical examinations, continuous ECG, laboratory tests) (healthy volunteers; SAD and MAD cohorts): revealed no abnormalities
Serious adverse events (SAEs) (healthy volunteers; five SAD and two MAD cohorts, 42 subjects receiving SRP-001): no serious adverse events (SAEs) reported
Tolerability (healthy volunteers; oral nanosuspension, SAD and MAD cohorts): well tolerated
